Experimental data: publication PMC9810167, “Novel dual LSD1/HDAC6 inhibitor for the treatment of cancer” (PLOS ONE, 2023)
Read-outs that look alike come from different tables or passages of the source.

Legend:
HEL 92.1.7 = assay: Cell proliferation assay (Alamar Blue); format: cell-based, human; conditions: for EC50: Homo sapiens
Description: Cells were seeded in NUNC 96-well tissue culture plates (Life Technologies) in […] culture medium and incubated at 37°C/ 5% CO2 to adhere to plastic for 18–24 h. […] One set of plates (designated for the 144 h read out) were centrifuged at low speed for 30 seconds, and respective compounds were replenished in fresh media and incubated for another 68–72 h at 37°C/ 5% CO2. […] The inhibition curve was then fitted by plotting % inhibition against log concentration in GraphPad Prism 5.0 (GraphPad Software, Inc.) and the GI50 value of compound was determined. Data are representative of at least two independent experiments.

MM1.S xenograft = assay: MM1.S multiple myeloma xenograft model; format: in vivo; conditions: single agents (Bortezomib 0.5 mg/kg IP BIW; Pomalidomide 2.5 mg/kg PO 5x/week)
class I HDACs = tested on: class I HDACs; design: method as in PMID 22262760; conditions: read-out: potency on class I HDACs; cited from earlier work

For N[C@H]1CC[C@H](N[C@@H]2C[C@H]2c2ccccc2)CC1 [Iadademstat], the “anti-proliferative EC50, 72 h” value (HEL 92.1.7; HEL92.1.7, 3 days (72 h) of incubation) was “did not show any measurable anti-proliferative activity” and the “cell growth inhibition reached (plateau)” value (HEL 92.1.7; HEL92.1.7, 6 days of incubation, up to 10 μM) was 50–60%.

With Nc1cccc2c1C(=O)N(C1CCC(=O)NC1=O)C2=O (stereo not drawn) [Pomalidomide, reference compound] the tolerability (MM1.S xenograft) was “well tolerated”.

In the case of O=C(CCCCCCNC(=O)c1cnc(N(c2ccccc2)c2ccccc2)nc1)NO [Ricolinostat], the IC50 (class I HDACs) is given as roughly 0.05 µM, the EC50 (HEL 92.1.7; HEL 92.1.7, read-out: anti-proliferative EC50, HEL92.1.7, 3 days (72 h) of incubation) is given as 4.4 µM and the EC50 (HEL 92.1.7; HEL 92.1.7, Leukemia, 144 h, read-out: EC50, 144hr) is given as 3.7 µM.
